Patent US7901894B2, “Kinase inhibitors” (The Research Foundation of State University of New York, priority 1999, dated 2011)
One block for each molecule: values may come before it. *1 amine or outer side, *2 acyl side, *3 side chain or, on linkers, in order; H or OH if unused. Where a SMILES comes first, the peptide text is derived from it. [ ]: non-standard residue; d: D form. X2 = O=C(O)CC(CC(=O)O)NC[C@H](N[*:1])C(=O)[*:2]; Abu(4-PO3H2) = N[C@@H](CCP(=O)(O)O)C(=O)O; X1 = O=C([C@H](CNS(=O)(=O)O)N[*:1])[*:2]; M1 = not defined here

Legend:
p56^lck = p56^lck (Homo sapiens, UniProt P06239); settings: analyzed with p56^lck; cited from earlier work
Chain of p56^lck (P06239 whole entry, species assumed): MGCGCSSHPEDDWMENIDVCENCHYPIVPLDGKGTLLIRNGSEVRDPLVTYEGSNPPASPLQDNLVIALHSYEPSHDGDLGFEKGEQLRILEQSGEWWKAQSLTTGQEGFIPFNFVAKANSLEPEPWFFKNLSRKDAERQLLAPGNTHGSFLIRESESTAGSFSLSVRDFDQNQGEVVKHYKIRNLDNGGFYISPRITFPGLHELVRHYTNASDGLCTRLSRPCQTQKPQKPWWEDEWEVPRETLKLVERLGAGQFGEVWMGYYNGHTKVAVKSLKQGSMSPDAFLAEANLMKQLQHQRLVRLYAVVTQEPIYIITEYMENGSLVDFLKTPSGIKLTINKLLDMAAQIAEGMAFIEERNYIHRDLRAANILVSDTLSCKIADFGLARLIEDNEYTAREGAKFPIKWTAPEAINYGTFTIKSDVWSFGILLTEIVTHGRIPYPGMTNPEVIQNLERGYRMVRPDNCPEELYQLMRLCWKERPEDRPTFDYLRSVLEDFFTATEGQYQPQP

pp60^c-src = pp60^c-src (Homo sapiens, UniProt P12931); assay: src Cellular Mimetic assay (RR-SRC phosphorylation); settings: for inhibition at 1000 µM: read-out: % Inhibition of 2 mM RR-src phosphorylation by src, Cellular Mimetic; for % Inhibition of 2 mM RR-src at Inhibitor Concentration ( ): Table IV
Chain of pp60^c-src (P12931 whole entry): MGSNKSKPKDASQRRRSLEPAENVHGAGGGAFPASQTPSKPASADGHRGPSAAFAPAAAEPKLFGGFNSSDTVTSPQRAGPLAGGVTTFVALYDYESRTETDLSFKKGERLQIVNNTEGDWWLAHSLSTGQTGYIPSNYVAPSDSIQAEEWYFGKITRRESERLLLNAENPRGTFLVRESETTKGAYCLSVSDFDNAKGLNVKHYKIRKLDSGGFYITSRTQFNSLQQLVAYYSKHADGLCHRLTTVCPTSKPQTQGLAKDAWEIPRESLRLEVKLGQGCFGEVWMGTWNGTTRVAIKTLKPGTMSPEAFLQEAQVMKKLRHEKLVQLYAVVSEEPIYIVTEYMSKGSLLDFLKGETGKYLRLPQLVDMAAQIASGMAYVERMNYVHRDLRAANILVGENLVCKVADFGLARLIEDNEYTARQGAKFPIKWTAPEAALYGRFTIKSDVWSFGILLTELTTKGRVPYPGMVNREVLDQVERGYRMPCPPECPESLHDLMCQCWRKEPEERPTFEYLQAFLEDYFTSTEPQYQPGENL

src = molecular target: T1, src (Homo sapiens, UniProt P12931); assay: src Literature Mimetic assay (RR-src phosphorylation); format: biochemical; settings: Inhibitor 1 mM; read-out: % Inhibition of 2 mM RR-src phosphorylation by src, Literature Mimetic
T1 construct: purchased
T1 sequence (P12931 whole entry): as above

PKA [1] = molecular target: T2, PKA (Homo sapiens, UniProt P17612); assay: PKA Literature Mimetic assay; format: biochemical; settings: for Ki: Literature Mimetic (L) conditions
Text: (§1) The boronic acid inhibitors 21-24 have two Arg residues in their sequence and therefore will bind to the phosphocellulose paper in addition to Kemptamide (although not as consistently or completely due to one less positive charge). Consequently, when analyzed as inhibitors, the amount of phosphorylated Kemptamide produced was not only counted, but also the amount of phosphorylated inhibitor simultaneously produced (e.g. see 26 below). The net result is that distorted IC50 curves are obtained which show net “stimulation” at higher inhibitor concentrations in some cases. […] The underlying substrate behavior of these “inhibitors” makes an accurate measurement of their inhibition potency impossible with the current assay. However, it does appear from the data that homologating/extending the boronic acid functionality with CH2 groups (homologations/extensions with boronic acid non-peptide src inhibitors may also be carried out) decreases the binding affinity and ability of the compound to function as a substrate.

PKA [2] = molecular target: T2, PKA; assay: PKA Cellular Mimetic assay; format: biochemical; settings: Cellular Mimetic (C) conditions
Text: as §1

PKA [3] = molecular target: T2, PKA; assay: STAIRe method: form of the protein kinase the inhibitor binds best; format: biochemical
Text: This was a somewhat surprising result since these inhibitors are analogs of the “end product inhibitors” 1 and 12 which must bind simultaneously with MgADP, following phosphate transfer in the generally accepted reaction mechanism for protein kinases.

[4] = system: ovarian tumor cells from tumor N015; assay: Patient tumor cell culture (ovarian tumors, abdominal carcinoma; tumor N015); format: cell-based, human
Text: The initial non-peptide Src inhibitors have also shown very encouraging results in four different series of cell culture assays. 1) In the NIH 60-tumor cell panel assay, broad activity (as one would expect for a Src inhibitor) was seen against the tumor cell lines, including the prostate lines. […] […].

[5] = system: T3, boronic acid-containing PKA pentapeptide inhibitor 22, Ac-RRGXI-NH2
T3 sequence: RRGXI

[6] = system: T4, boronic acid-containing PKA pentapeptide inhibitor 21, Ac-RRGXI-NH2
T4 sequence: RRGXI

[7] = molecular target: cAMP-dependent protein kinase (PKA); assay: PKA kinase inhibition assay, Literature Mimetic conditions
[8] = molecular target: cAMP-dependent protein kinase (PKA); assay: PKA kinase inhibition assay, Literature Mimetic conditions; reference: sulfamic acid inhibitor 8
[9] = molecular target: cAMP-dependent protein kinase (PKA); assay: PKA kinase inhibition assay, Cellular Mimetic conditions; reference: phosphate inhibitor 1
[10] = molecular target: cAMP-dependent protein kinase (PKA); assay: PKA kinase inhibition assay, Literature Mimetic conditions; reference: phosphate inhibitor 1
[11] = molecular target: cAMP-dependent protein kinase (PKA); assay: PKA kinase inhibition assay (Ki, Table I); reference: the same inhibitor under Literature Mimetic conditions
[12] = molecular target: cAMP-dependent protein kinase (PKA); assay: PKA kinase inhibition assay with Kemptamide substrate, Cellular Mimetic conditions, 0 h preincubation
[13] = molecular target: cAMP-dependent protein kinase (PKA); assay: PKA kinase inhibition assay with Kemptamide substrate, Literature Mimetic conditions, 0 h preincubation
[14] = molecular target: cAMP-dependent protein kinase (PKA); assay: cell-based or functional assay

Molecule: Cc1cc(O)c2c(c1)C(=O)c1cc(O)cc(O)c1C2=O [Emodin]
mode of inhibition with respect to ATP (p56^lck): ATP-competitive

Molecule: NC(=O)C(O)C(=O)O (centres unmarked)
inhibition at 1000 µM (pp60^c-src): 5%
inhibition at 1000 µM (src): 64%

Molecule: CC[C@H](C)[C@H](NC(=O)[C@H](CC(O)P(=O)(O)O)NC(=O)CNC(=O)[C@H](CCCNC(=N)N)NC(=O)[C@H](CCCNC(=N)N)NC(C)=O)C(N)=O (single isomer, unassigned) [inhibitor 3B]
Ki (PKA [1]): 72 µM

Molecule: NC(=O)CC(=O)O
inhibition at 1000 µM (pp60^c-src): 28%
inhibition at 1000 µM (src): 20%

Molecule: O=P(O)(O)CO
inhibition at 1000 µM (pp60^c-src): 0%
inhibition at 1000 µM (src): 51%

Molecule: CC[C@H](C)[C@H](NC(=O)[C@H](CC(O)P(=O)(O)O)NC(=O)CNC(=O)[C@H](CCCNC(=N)N)NC(=O)[C@H](CCCNC(=N)N)NC(C)=O)C(N)=O (single isomer, unassigned) [inhibitor 3A]
Ki (PKA [1]): 18 µM

Molecule: NS(=O)(=O)c1ccc2ccccc2c1
% Inhibition of 2 mM RR-src at Inhibitor Concentration ( ) (pp60^c-src; 100 μM inhibitor): 0 (100 μM) %

Molecule: O=S(=O)(O)c1ccc2ccccc2c1
% Inhibition of 2 mM RR-src at Inhibitor Concentration ( ) (pp60^c-src; 1 mM inhibitor): 0 (1 mM) %

Molecule: NS(=O)(=O)c1cccc2ccccc12
% Inhibition of 2 mM RR-src at Inhibitor Concentration ( ) (pp60^c-src; 100 μM inhibitor): 0 (100 μM) %

Molecule: NC(=O)C(N)C(=O)O (centres unmarked)
inhibition at 1000 µM (pp60^c-src): 0%
inhibition at 1000 µM (src): 24%

Molecule: CC[C@H](C)[C@H](NC(=O)[C@H](CCP(=O)(O)O)NC(=O)CNC(=O)[C@H](CCCNC(=N)N)NC(=O)[C@H](CCCNC(=N)N)NC(C)=O)C(N)=O (Ac-RRG[Abu(4-PO3H2)]I-NH2)
Ki (PKA [1]): 76 µM

Molecule: COc1cccc2c1C(=O)c1c(O)c3c(c(O)c1C2=O)C[C@@](O)(C(=O)CO)C[C@@H]3O[C@H]1C[C@H](N)[C@H](O)[C@H](C)O1 [doxorubicin]
efficacy in tumor cell culture compared with other drugs [4]: more effective than etoposide & cisplatin

Molecule: CC(=O)O[C@H]1C(=O)[C@@]2(C)[C@H]([C@H](OC(=O)c3ccccc3)[C@]3(O)C[C@H](OC(=O)[C@H](O)[C@@H](NC(=O)c4ccccc4)c4ccccc4)C(C)=C1C3(C)C)[C@]1(OC(C)=O)CO[C@@H]1C[C@@H]2O [taxol]
efficacy in tumor cell culture compared with other drugs [4]: more effective than etoposide & cisplatin

Molecule: cAMP-dependent protein kinase (PKA)
phosphorylation by PKA on incubation for up to 4 hours without Kemptamide [5]: both 21 and 22 function as substrates with the D-diastereomer 22 being phosphorylated faster
phosphorylation by PKA on incubation for up to 4 hours without Kemptamide [6]: both 21 and 22 function as substrates with the D-diastereomer 22 being phosphorylated faster

Continued, in another order:

Ki (PKA [1]): 45 µM
Molecule: CC[C@H](C)[C@H](NC(=O)[C@H](CNC(CC(=O)O)CC(=O)O)NC(=O)CNC(=O)[C@H](CCCNC(=N)N)NC(=O)[C@H](CCCNC(=N)N)NC(C)=O)C(N)=O (Ac-RRG[X2]I-NH2)

% Inhibition of 2 mM RR-src at Inhibitor Concentration ( ) (pp60^c-src; 100 μM inhibitor): 10 (100 μM) %
Molecule: OB(O)c1cc2ccccc2o1 [compound 35]

% Inhibition at 100 μM (std. dev.) (pp60^c-src; Table VI, hydroxynaphthalene series, 198 μM ATP): inactive
Molecule: COC(=O)c1cc2ccccc2cc1N [Compd 1d]

binds more tightly than end product phosphate inhibitor 1 (PKA [1]; Literature Mimetic conditions): 31 times
binds more tightly than end product phosphate inhibitor 1 (PKA [2]): 108 times
Molecule: CC[C@H](C)[C@H](NC(=O)[C@H](CNS(=O)(=O)O)NC(=O)CNC(=O)[C@H](CCCNC(=N)N)NC(=O)[C@H](CCCNC(=N)N)NC(C)=O)C(N)=O [compound 8] (Ac-RRG[X1]I-NH2)
enzyme form bound best (STAIRe methodology) (PKA [3]): bind best when MgATP (not MgADP or no nucleotide) is also bound

% Inhibition of 2 mM RR-src at Inhibitor Concentration ( ) (pp60^c-src; 100 μM inhibitor): 0 (100 μM) %
Molecule: OB(O)c1cccc2ccccc12

mode of inhibition relative to ATP (pp60^c-src; ATP increased up to 1 mM): not ATP-competitive
Molecule: OB(O)c1ccc2ccccc2c1 [compound 27]

Ki [7]: 300 µM
fold less potent than inhibitor 8 [8]: 1880 times
B1: PKA pentapeptide inhibitor 7 (sulfonamide), Ac-Arg-Arg-Gly-Ala(M1)-Ile-NH2 (peptide)
peptide: Ac-RRGAI-NH2
modifications: not fully specified (residue 4); printed as Ac-Arg-Arg-Gly-Ala(M1)-Ile-NH2; also: M1 = sulfonamide on side chain of residue 4

Ki [7]: 76 µM
B2: PKA pentapeptide inhibitor 2 (phosphonate), Ac-Arg-Arg-Gly-Ala(M1)-Ile-NH2 (peptide)
peptide: Ac-RRGAI-NH2
modifications: not fully specified (residue 4); printed as Ac-Arg-Arg-Gly-Ala(M1)-Ile-NH2; also: M1 = phosphonate on side chain of residue 4

Ki [7]: 0.16 µM
fold tighter binding than end product phosphate inhibitor 1 [9]: 108 times
fold tighter binding than end product phosphate inhibitor 1 [10]: 31 times
B3: PKA pentapeptide inhibitor 8 (sulfamic acid), Ac-Arg-Arg-Gly-Ala(M1)-Ile-NH2 (peptide)
peptide: Ac-RRGAI-NH2
modifications: not fully specified (residue 4); printed as Ac-Arg-Arg-Gly-Ala(M1)-Ile-NH2; also: M1 = sulfamic acid on side chain of residue 4

Ki [7]: 18 µM
B4: PKA pentapeptide inhibitor 3A (hydroxyphosphonate, diastereomer A), Ac-Arg-Arg-Gly-Ala(M1)-Ile-NH2 (peptide)
peptide: Ac-RRGA(M1)I-NH2
modifications: reading uncertain; also: diastereomer A at M1, printed as Ac-Arg-Arg-Gly-Ala(M1)-Ile-NH2

Ki [7]: 72 µM
B5: PKA pentapeptide inhibitor 3B (hydroxyphosphonate, diastereomer B), Ac-Arg-Arg-Gly-Ala(M1)-Ile-NH2 (peptide)
peptide: Ac-RRGA(M1)I-NH2
modifications: reading uncertain; also: diastereomer B at M1, printed as Ac-Arg-Arg-Gly-Ala(M1)-Ile-NH2

fold change in potency, Literature Mimetic to Cellular Mimetic conditions [11]: 108 fold
B6: PKA pentapeptide inhibitor 1 (end product phosphate inhibitor), Ac-Arg-Arg-Gly-Ala(M1)-Ile-NH2 (peptide)
peptide: Ac-RRGAI-NH2
modifications: not fully specified (residue 4); printed as Ac-Arg-Arg-Gly-Ala(M1)-Ile-NH2; also: M1 = phosphate group on side chain of residue 4

Ki [7]: 45 µM
B7: PKA pentapeptide inhibitor 11, Ac-Arg-Arg-Gly-Ala(M1)-Ile-NH2 (peptide)
peptide: Ac-RRGA(M1)I-NH2
modifications: not fully specified; printed as Ac-Arg-Arg-Gly-Ala(M1)-Ile-NH2; reading uncertain

fold change in potency, Literature Mimetic to Cellular Mimetic conditions [11]: 3 fold
B8: PKA pentapeptide inhibitor 10, Ac-Arg-Arg-Gly-Ala(M1)-Ile-NH2 (peptide)
peptide: Ac-RRGA(M1)I-NH2
modifications: reading uncertain; also: M1 group structure shown only in a drawing, printed as Ac-Arg-Arg-Gly-Ala(M1)-Ile-NH2

Ki [12]: 25 µM
Ki [13]: 9 µM
IC50 µM (cond. C, 0 h preincubation), PKA inhibition [14]: 41 µM
IC50 µM (cond. C, 4 h preincubation), PKA inhibition [14]: 50 µM
IC50 µM (cond. L, 0 h preincubation), PKA inhibition [14]: 278 µM
IC50 µM (cond. L, 4 h preincubation), PKA inhibition [14]: 417 µM
Molecule: Ac-RRGAI-NH2 [pentapeptide pseudosubstrate inhibitor 20, Ac-RRGAI-NH2]
